Structures can show the parent of a compound that is named as a salt. Where two headings read alike, the source gives them in different places.

The source of these data is patent US5342604A (The Dow Chemical Company, priority 1992, dated 1994).

Series [1] can be described thus: Percent complex determination, yttrium complexes (Sephadex C-25 cation exchange). Format: physicochemical. The settings on record: Y. The procedure:
The yttrium and/or samarium complexes of several of the compounds were prepared and percent complexation determined as follows:
Complexes were made by preparing a 0.0003M yttrium solution in water. (YCl3 ·6H2 O, 303.26 g/mole; Y(OAc)3, 12.1% H2 0). Radioactive YCl3 (Oakridge National Laboratories) was added to give the desired number of counts. Ten μl of ligand solution (at 0.03M) were added to 990 μl of the Y solution, giving a ligand-to-metal ratio of 1:1. (Ten times the amount of ligand solution was used for a 10:1 ligand to metal ratio.) The pH was then adjusted to 7.4 using microliter quantities of hydrochloric acid or sodium hydroxide. The solution was then tested for the amount of complexed yttrium using the cation exchange method given below.
(§1) A disposable 10 ml plastic (Biorad) column was filled with 1 to 2 ml of water-swelled Sephadex™ C-25 cation exchange resin. The water was pressure eluted to the top of the resin. Fifteen μl of the complex (or more if counts were low) were added to the top of the resin. This was followed by 2 ml of 4:1 (V:V) isotonic saline:conc. ammonium hydroxide solution as an eluent which was allowed to drip into a counting tube. This was also pressure eluted to the top of the resin. An additional 2 ml of the eluent were added and the column pressure eluted to remove all liquid. The dried resin was then placed in a third counting tube and the three tubes counted on a NaI well counter using a Canberra multichannel analyzer linked to a computer. The percent complex was determined by dividing the number of counts in the two elutions by the total counts in the elutions plus the column, all times 100. By this method, uncomplexed yttrium was retained on the column.

A short description of series [2]: In vivo screening of bifunctional chelates: biodistribution, percent injected dose in liver. As to conditions: rat, i.v. tail vein, 2 hours.
Description: (§2) Also samarium was injected as samarium chloride in unchelated form.
(§3) Sprague-Dawley rats weighing from 150 to 200 g were purchased from Charles River Laboratories. These animals were placed in cages and fed water and food ad libitum. The animals were acclimated for at least five days before use. Prior to injection of complex, the animals were placed under a heat lamp (15 to 30 minutes) to dilate the tail vein. Then, the animal was placed in a restraining cage, the tail cleaned with an alcohol swipe, and the animal injected (50 to 200 μl) via the tail vein. After injection, the animal was placed in another cage for two hours after which time the animal was sacrificed by cervical dislocation. The animal was then dissected, the parts rinsed with deionized H2 O, patted dry, and weighed into a tared counting vial. Whatever size of injection was made, at least three standards of the same material were prepared and counted with the animal parts.
A short description of series [3]: Percent complex determination, samarium complexes (Sephadex C-25 cation exchange). Format: physicochemical. The procedure:
as §1, with “100.” for “100. By this method, uncomplexed yttrium was retained on the column.”
Samarium complexes were formed as described previously for yttrium complexes except that 0.0003M samarium was prepared by dissolution of Sm2 03 (348.7 g mole) in 0.1M hydrochloric acid. […] Percent complex determination was made in the same manner as for the yttrium complex.

Series [4] in a line: Inertness of samarium complex to pH change. Format: physicochemical. The procedure:
as §1
One portion was treated with 1-2 μl portions of 0.1N hydrochloric acid until the pH was lowered and the other portion was treated with 0.1N sodium hydroxide to bring the pH up. The complexes were allowed to set for 5-10 minutes at each pH change, then they were sampled to determine the percent complexation at that pH by the method described for Examples 16 through 33.
One portion was treated with 1-2 μportions of 1.0N hydrochloric acid until the pH was lowered and the other portion was treated with 0.1N, 1.0N and 50 weight % sodium hydroxide to bring the pH up. The complexes were allowed to set for about 5 minutes at each pH change, then they were sampled to determine the percent complexation at that pH by the method described for Examples 16 through 33.

The conditions of series [5]: rat, in vivo, iv, 120 min.
Description: as §2, §3
The mark [6] stands for this setting: Sm, ligand/metal ratio not stated.
Where [7] appears, read: Sm, ligand/metal ratio about 50:1.

For the molecule `CC(=O)Nc1cc(CN(CCN(CC(=O)O)CC(=O)O)CC(=O)O)c(O)c(CN(CCN(CC(=O)O)CC(=O)O)CC(=O)O)c1` [Example 11], the “% Complex” value is reported as 99% in series [1] (ligand/metal 10:1) and 98% in series [1] (ligand/metal ratio about 1:1).
“2-[(2-[(2-[(2-{[BIS(CARBOXYMETHYL)]AMINO}ETHYL) (CARBOXYMETHYL)AMINO]ETHYL) (CARBOXYMETHYL)AMINO]ETHYL)(CARBOXYMETHYL)AMINO]-2-[5-ACETAMIDO2-(CARBOXYMETHYLOXY) PHENYL]ETHANOIC ACID AND 2[(2-[(2-{[BIS(CARBOXYMETHYL)]AMINO}ETHYL)(CARBOXYMETHYL) AMINO]ETHYL)(2-{[BIS(CARBOXYMETHYL)]AMINO}ETHYL)AMINO]-2-[5-ACETAMIDO-2-(CARBOXYMETHYLOXY) PHENYL]ETHANOIC ACID [Example 9]”: in series [2] (Sm, ligand/metal 10:1), the “% Injected Dose in Liver” value is 2.8%. The “% Complex” value in series [3] (Sm, ligand/metal 10:1) is on record as over 99%.
As to `Nc1ccc(O)c(C(NCCNC(C(=O)O)c2cc(N)ccc2O)C(=O)O)c1` (centres unmarked) [Example X, […][(2-HYDROXY-5AMINOPHENYL)ACETIC ACID], reference compound], the “% Injected Dose in Liver” value in series [2] (setting [6]) is 24%.
In the case of “2-[BIS(2-{[(BIS(CARBOXYMETHYL)]AMINO}ETHYL) AMINO]-2-[5-AMINO-2-(CARBOXYMETHYLOXY)PHENYL]ETHANOIC ACID AND 2-[{2-[(2-{[BIS(CARBOXYMETHYL)]AMINO}ETHYL)(CARBOXYMETHYL)AMINO]ETHYL} (CARBOXYMETHYL)AMINO]-2-[5-AMINO-2-(CARBOXYMETHYLOXY)PHENYL]ETHANOIC ACID [Example 7]”, in series [3] (setting [7]), the “% Complex” value was determined as 96%.
With “2-[{2-[(2{[B IS(CARBOXYMETHYL)]AMINO}ETHYL) (CARBOXYMETHYL) AMINO]ETHYL} (CARBOXYMETHYL) AMINO]-2-[5-AMINO-2-(CARBOXYMETHYLOXY)PHENYL]ETHANOIC ACID, SAMARIUM COMPLEX [XXIII]”, in series [3] (Sm, pH about 7, Example XXIII), the percent complexation is 96%. Moreover, the “% Complexed” value is 91% in series [4] (Table VI, pH 1, about 5 minutes); 88% in series [4] (Table VI, pH 2, about 5 minutes); 92% in series [4] (Table VI, pH 3, about 5 minutes); 96% in series [4] (Table VI, pH 5, about 5 minutes); 96% in series [4] (Table VI, pH 7, about 5 minutes); 99% in series [4] (Table VI, pH 9, about 5 minutes). The “% Complexed” value in series [4] (Table VI, pH 12, about 5 minutes) was found to be 98%; in series [4] (Table VI, pH 13, about 5 minutes) it was 99%.
Turning to `CC(=O)Nc1ccc(O)c(C(C(=O)O)N(CC#N)CCN(CC(=O)O)CC(=O)O)c1` (centres unmarked) [Example 4, 2-[(2-{[bis(carboxymethyl)]amino}ethyl) (cyanomethyl)amino]-2-(5-acetamido-2-hydroxyphenyl)ethanoic acid], in series [1] (ligand/metal 10:1), the “% Complex” value is recorded as over 99%. Further, the “% Injected Dose in Liver” value in series [5] was determined as 1.4%.
Turning to `[Cl][Sm]([Cl])[Cl]` [SmCl3, samarium chloride, reference compound], in series [2] (Sm injected as samarium chloride in unchelated form), the “% Injected Dose in Liver” value was determined as 39%.
Regarding `Nc1ccc(OCC(=O)O)c(C(C(=O)O)N(CCN(CC(=O)O)CC(=O)O)CC(=O)O)c1` (centres unmarked) [Example 3, 2-[(2-{[BIS(CARBOXYMETHYL)]AMINO}ETHYL) (CARBOXYMETHYL)AMINO]-2-[5-AMINO-2-(CARBOXYMETHYLOXY)PHENYL]ETHANOIC ACID, PENTA SODIUM SALT], the “% Complex” value in series [1] (ligand/metal 10:1) was over 99%. In series [5], the “% Injected Dose in Liver” value came to 0.22%.
For the molecule `CC(=O)Nc1ccc(O)c(CN(CCN(CC(=O)O)Cc2cc(NC(C)=O)ccc2O)CC(=O)O)c1` [Example U, N,N'-DI(2-HYDROXY, 5-ACETAMIDOBENZYL)ETHYLENEDIAMINE-N,N'-DIACETIC ACID, reference compound], in series [2] (setting [6]), the “% Injected Dose in Liver” value was determined as 12%.
Consider `CC(=O)Nc1cc(CN(CCN(CC(=O)O)CC(=O)O)CC(=O)O)c(O)c(CN(CC(=O)O)CC(=O)O)c1` [Example 15, 2-({[BIS(CARBOXYMETHYL)]AMINO}METHYL)-6-{[({[BIS(CARBOXYMETHYL)]AMINO}ETHYL)((CARBOXYMETHYL)AMINO]METHYL}-4-(ACETAMIDO)PHENOL], for which, in series [1] (ligand/metal 10:1), the “% Complex” value is 99%. The “% Injected Dose in Liver” value in series [5] turned out to be 0.37%.
For `Nc1ccc(OCC(=O)O)c(C(C(=O)O)N(CCN(CCN(CC(=O)O)CC(=O)O)CC(=O)O)CC(=O)O)c1` (centres unmarked) [Example 8, 2-[{2-[(2-{[BIS(CARBOXYMETHYL)]-AMINO}ETHYL) (CARBOXYMETHYL) AMINO]ETHYL}(CARBOXYMETHYL)AMINO ]-2-[5-AMINO-2- CARBOXYMETHYLOXY)PHENYL]ETHANOIC ACID], the “% Complex” value in series [3] (setting [7]) is on record as over 99%.
For the molecule “2-[bis(2-{[(bis(carboxymethyl)]amino}ethyl) amino]-2-[5-acetamido-2-(carboxymethyloxy)phenyl]ethanoic acid and 2-[{2-[(2-{[bis(carboxymethyl)]amino}ethyl)(carboxymethyl)amino]ethyl} (carboxymethyl)amino]-2-[5-acetamido-2-(carboxymethyloxy)phenyl]ethanoic acid [Example 6]”, in series [2] (Sm, ligand/metal 10:1), the “% Injected Dose in Liver” value was determined as 0.38%. Further, the “% Complex” value in series [3] (Sm, ligand/metal 10:1) was over 99%.
Take “2-[BIS(2-{[(BIS(CARBOXYMETHYL)] AMINO}ETHYL)AMINO]-2-[5-AMINO-2-(CARBOXYMETHYLOXY) PHENYL]ETHANOIC ACID AND 2-[{2-[(2{[BIS(CARBOXYMETHYL)]AMINO}ETHYL) (CARBOXYMETHYL)AMINO]ETHYL}(CARBOXYMETHYL)AMINO]-2-[5-AMINO-2-(CARBOXYMETHYLOXY)PHENYL]ETHANOIC ACID, SAMARIUM COMPLEX [XXII]”: in series [3] (about pH 7.5, Example XXII), the “percent Sm that was complexed” value is listed as 100%. Further, the “% Complexed” value in series [4] (Table V, pH 1, 5-10 minutes) was determined as 98%; in series [4] (Table V, pH 2, 5-10 minutes), 100%; in series [4] (Table V, pH 3, 5-10 minutes) it was 100%; in series [4] (Table V, pH 4, 5-10 minutes), 100%; in series [4] (Table V, pH 5, 5-10 minutes), 100%; in series [4] (Table V, pH 7, 5-10 minutes), 100%. Also, the “% Complexed” value is listed as 100% in series [4] (Table V, pH 9, 5-10 minutes); 100% in series [4] (Table V, pH 11, 5-10 minutes); 100% in series [4] (Table V, pH 13, 5-10 minutes).
On to `Nc1ccc(O)c(C(C(=O)O)N(CCN(CC(=O)O)CC(=O)O)CC(=O)O)c1` (centres unmarked) [Example 5, 2-[(2-{[BIS(CARBOXYMETHYL)]-AMINO}ETHYL) (CARBOXYMETHYL)AMINO]-2-(5-AMINO-2HYDROXYPHENYL)ETHANOIC ACID], for which, in series [1] (ligand/metal 10:1), the “% Complex” value came to 99%. The “% Injected Dose in Liver” value in series [5] was 0.38%.
